pIC50: −log10 of the molar value. Where a name gives a salt, the structure may show the parent alone.
Target: TrkA (Homo sapiens (Human), UniProt P04629)
Assay: TrkA Omnia Assay
Format: biochemical
Conditions: averaged IC50; 20 nM enzyme, 500 μM ATP, 10 μM peptide substrate
Method in brief: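 Continuous fluorescent kinase read-out (ex 360 nm, em 485 nm) over 70 min, with initial rates fitted to 4- or 5-parameter logistic curves for IC50. Final conditions: 500 μM ATP, 10 μM Omnia Tyr Peptide #4, 20 nM TrkA, MOPS pH 7.5 buffer with MgCl2 and Triton X-100; enzyme and compound preincubated 10 min at ambient temperature.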

TrkA, sequence (P04629 33-796): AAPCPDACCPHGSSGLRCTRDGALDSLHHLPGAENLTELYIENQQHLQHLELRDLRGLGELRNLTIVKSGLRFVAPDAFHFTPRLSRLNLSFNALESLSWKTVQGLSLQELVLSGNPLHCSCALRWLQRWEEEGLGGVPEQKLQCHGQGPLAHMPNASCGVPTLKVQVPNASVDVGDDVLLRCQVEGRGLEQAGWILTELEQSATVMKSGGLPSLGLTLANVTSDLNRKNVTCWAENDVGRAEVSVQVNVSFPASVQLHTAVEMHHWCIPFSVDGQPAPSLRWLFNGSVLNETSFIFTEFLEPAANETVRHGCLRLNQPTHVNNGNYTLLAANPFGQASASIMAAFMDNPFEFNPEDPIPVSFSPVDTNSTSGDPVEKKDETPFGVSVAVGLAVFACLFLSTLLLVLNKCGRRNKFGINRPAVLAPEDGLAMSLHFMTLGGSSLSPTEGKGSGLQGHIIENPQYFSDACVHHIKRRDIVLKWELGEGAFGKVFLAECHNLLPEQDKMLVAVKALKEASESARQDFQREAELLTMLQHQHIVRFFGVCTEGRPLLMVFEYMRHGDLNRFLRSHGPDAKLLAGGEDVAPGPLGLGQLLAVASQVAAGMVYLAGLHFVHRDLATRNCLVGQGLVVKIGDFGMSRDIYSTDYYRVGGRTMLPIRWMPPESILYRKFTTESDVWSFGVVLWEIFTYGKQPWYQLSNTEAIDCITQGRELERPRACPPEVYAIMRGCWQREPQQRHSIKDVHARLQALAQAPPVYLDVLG

SMILES | pIC50
COCCN1C[C@@H](NC(=O)Nc2cc(-c3ccc(CO)cc3)nn2C)[C@H](c2ccc(F)c(F)c2)C1 [Example 165, 1-((3S,4R)-4-(3,4-difluorophenyl)-1-(2-methoxyethyl)pyrrolidin-3-yl)-3-(3-(4-(hydroxymethyl)phenyl)-1-methyl-1H-pyrazol-5-yl)urea] | > 7.00
COCCN1C[C@@H](NC(=O)Nc2cc(-c3ccc(S(C)(=O)=O)cc3)nn2C)[C@H](c2ccc(F)c(F)c2)C1 [Example 166, 1-((3S,4R)-4-(3,4-difluorophenyl)-1-(2-methoxyethyl)pyrrolidin-3-yl)-3-(1-methyl-3-(4-(methylsulfonyl)phenyl)-1H-pyrazol-5-yl)urea] | > 7.00
COCCN1C[C@@H](NC(=O)Nc2c(F)c(C)nn2-c2ccccc2)[C@H](c2ccc(F)c(F)c2)C1 [Example 167, 1-((3S,4R)-4-(3,4-difluorophenyl)-1-(2-methoxyethyl)pyrrolidin-3-yl)-3-(4-fluoro-3-methyl-1-phenyl-1H-pyrazol-5-yl)urea] | > 7.00
COCCN1C[C@@H](NC(=O)Nc2c(F)c(-c3ccccc3)nn2C)[C@H](c2ccc(F)c(F)c2)C1 [Example 168, 1-((3S,4R)-4-(3,4-difluorophenyl)-1-(2-methoxyethyl)pyrrolidin-3-yl)-3-(4-fluoro-1-methyl-3-phenyl-1H-pyrazol-5-yl)urea] | > 7.00
COCCN1C[C@@H](NC(=O)Nc2c(F)c(-c3ccccc3)nn2-c2ccccc2)[C@H](c2ccc(F)c(F)c2)C1 [Example 169, 1-((3S,4R)-4-(3,4-difluorophenyl)-1-(2-methoxyethyl)pyrrolidin-3-yl)-3-(4-fluoro-1,3-diphenyl-1H-pyrazol-5-yl)urea] | > 7.00
COCCOC(=O)c1ccc(-c2cc(NC(=O)N[C@@H]3CN(CCOC)C[C@H]3c3ccc(F)c(F)c3)n(C)n2)cc1 [Example 170, 2-methoxyethyl 4-(5-(3-((3S,4R)-4-(3,4-difluorophenyl)-1-(2-methoxyethyl)pyrrolidin-3-yl)ureido)-1-methyl-1H-pyrazol-3-yl)benzoate] | > 7.00
COCCN1C[C@@H](NC(=O)Nc2c3c(nn2-c2ccccc2)CS(=O)(=O)C3)[C@H](c2ccc(F)c(F)c2)C1 [Example 171, 1-((3S,4R)-4-(3,4-difluorophenyl)-1-(2-methoxyethyl)pyrrolidin-3-yl)-3-(5,5-dioxido-2-phenyl-4,6-dihydro-2H-thieno[3,4-c]pyrazol-3-yl)urea] | > 7.00
COCCN1C[C@@H](NC(=O)Nc2c3c(nn2-c2ccccc2)CS(=O)(=O)C3)[C@H](c2ccccc2)C1 [Example 172, 1-(5,5-dioxido-2-phenyl-4,6-dihydro-2H-thieno[3,4-c]pyrazol-3-yl)-3-((3S,4R)-1-(2-methoxyethyl)-4-phenylpyrrolidin-3-yl)urea] | > 7.00
COCCN1C[C@@H](NC(=O)Nc2c3c(nn2-c2ccccc2)CS(=O)(=O)C3)[C@H](c2cc(F)cc(F)c2)C1 [Example 173, 1-((3S,4R)-4-(3,5-difluorophenyl)-1-(2-methoxyethyl)pyrrolidin-3-yl)-3-(5,5-dioxido-2-phenyl-4,6-dihydro-2H-thieno[3,4-c]pyrazol-3-yl)urea] | > 7.00
COCCN1C[C@@H](NC(=O)Nc2c(C)c(OCCS(C)(=O)=O)nn2-c2ccccc2)[C@H](c2ccc(F)c(F)c2)C1 [Example 174, 1-((3S,4R)-4-(3,4-difluorophenyl)-1-(2-methoxyethyl)pyrrolidin-3-yl)-3-(4-methyl-3-(2-(methylsulfonyl)ethoxy)-1-phenyl-1H-pyrazol-5-yl)urea] | > 7.00
COCCN1C[C@@H](NC(=O)Nc2c(CO)cnn2-c2ccccc2)[C@H](c2ccc(F)c(F)c2)C1 [Example 175, 1-((3S,4R)-4-(3,4-difluorophenyl)-1-(2-methoxyethyl)pyrrolidin-3-yl)-3-(4-(hydroxymethyl)-1-phenyl-1H-pyrazol-5-yl)urea] | > 7.00
COCCN1C[C@@H](NC(=O)Nc2c(C)c(OC[C@H](O)CO)nn2-c2ccccc2)[C@H](c2ccc(F)c(F)c2)C1 [Example 176, 1-((3S,4R)-4-(3,4-difluorophenyl)-1-(2-methoxyethyl)pyrrolidin-3-yl)-3-(3-((R)-2,3-dihydroxypropoxy)-4-methyl-1-phenyl-1H-pyrazol-5-yl)urea] | > 7.00
COCCN1C[C@@H](NC(=O)Nc2c(C)c(OC[C@@H](O)CO)nn2-c2ccccc2)[C@H](c2ccc(F)c(F)c2)C1 [Example 177, 1-((3S,4R)-4-(3,4-difluorophenyl)-1-(2-methoxyethyl)pyrrolidin-3-yl)-3-(3-((S)-2,3-dihydroxypropoxy)-4-methyl-1-phenyl-1H-pyrazol-5-yl)urea] | > 7.00
COCCN1C[C@@H](NC(=O)Nc2c(C)c(OCCO)nn2-c2ccccc2)[C@H](c2ccc(F)c(F)c2)C1 [Example 178, 1-((3S,4R)-4-(3,4-difluorophenyl)-1-(2-methoxyethyl)pyrrolidin-3-yl)-3-(3-(2-hydroxyethoxy)-4-methyl-1-phenyl-1H-pyrazol-5-yl)urea hydrochloride] | > 7.00
COCCN1C[C@@H](NC(=O)Nc2c(C)c(OC[C@H](C)O)nn2-c2ccccc2)[C@H](c2ccc(F)c(F)c2)C1 [Example 179, 1-((3S,4R)-4-(3,4-difluorophenyl)-1-(2-methoxyethyl)pyrrolidin-3-yl)-3-(3-((S)-2-hydroxypropoxy)-4-methyl-1-phenyl-1H-pyrazol-5-yl)urea hydrochloride] | > 7.00
COCCN1C[C@@H](NC(=O)Nc2c3c(nn2-c2ccccc2)CCC3)[C@](O)(c2ccccc2)C1 [Example 180, 1-((3R,4S)-4-hydroxy-1-(2-methoxyethyl)-4-phenylpyrrolidin-3-yl)-3-(2-phenyl-2,4,5,6-tetrahydrocyclopenta[c]pyrazol-3-yl)urea] | 5.00 to 6.00
COCCN1C[C@@H](NC(=O)Nc2c3c(nn2-c2ccccc2)CCC3)[C@](F)(c2ccccc2)C1 [Example 181, 1-((3R,4S)-4-fluoro-1-(2-methoxyethyl)-4-phenylpyrrolidin-3-yl)-3-(2-phenyl-2,4,5,6-tetrahydrocyclopenta[c]pyrazol-3-yl)urea] | 6.00 to 7.00
CO[C@@H](C)CN1C[C@@H](NC(=O)Nc2c3c(nn2-c2ccccc2)CCC3)[C@H](c2ccccc2)C1 [Example 184, 1-((3S,4R)-1-((S)-2-methoxypropyl)-4-phenylpyrrolidin-3-yl)-3-(2-phenyl-2,4,5,6-tetrahydrocyclopenta[c]pyrazol-3-yl)urea] | 5.00 to 6.00
O=C(Nc1c2c(nn1-c1ccccc1)CCC2)NC1CN(CCCC(F)(F)F)C[C@H]1c1ccccc1 (stereo partly drawn) [Example 185, 1-((3,4-trans)-4-phenyl-1-(4,4,4-trifluorobutyl)pyrrolidin-3-yl)-3-(2-phenyl-2,4,5,6-tetrahydrocyclopenta[c]pyrazol-3-yl)urea] | 6.00 to 7.00
N#CCN1C[C@@H](NC(=O)Nc2c3c(nn2-c2ccccc2)CCC3)[C@H](c2ccc(F)c(F)c2)C1 [Example 186, 1-((3S,4R)-1-(cyanomethyl)-4-(3,4-difluorophenyl)pyrrolidin-3-yl)-3-(2-phenyl-2,4,5,6-tetrahydrocyclopenta[c]pyrazol-3-yl)urea] | > 7.00
COCCOc1nn(-c2ccccc2)c(NC(=O)N[C@@H]2CN(CC#N)C[C@H]2c2ccc(F)c(F)c2)c1C [Example 187, 1-((3S,4R)-1-(cyanomethyl)-4-(3,4-difluorophenyl)pyrrolidin-3-yl)-3-(3-(2-methoxyethoxy)-4-methyl-1-phenyl-1H-pyrazol-5-yl)urea] | 6.00 to 7.00
